Reference: US20240208992A1, “MACROCYCLES AS CFTR MODULATORS” (Idorsia Pharmaceuticals Ltd, priority 2021, published 2024)

Molecular target: human F508del-CFTR (Homo sapiens, UniProt P13569, DEL508-508)
Assay: F508del-CFTR cell surface expression (corrector activity), DiscoveRx ß-galactosidase complementation chemiluminescence assay in recombinant U2OS cell line;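 note: U2OS cells co-expressing ProLink-tagged F508del-CFTR and a membrane-anchored enzyme acceptor, where more surface CFTR restores β-galactosidase activity measured by chemiluminescence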
Conditions: for EC50: EC50, F508del-CFTR cell surface expression, U2OS cells, 16h compound incubation, geomean values; for Emax: U2OS, in relation to Emax of corrector lumacaftor (=100%), arithmetic mean values

Sequence of human F508del-CFTR (P13569 with tags, fused parts or gaps DEL508-508): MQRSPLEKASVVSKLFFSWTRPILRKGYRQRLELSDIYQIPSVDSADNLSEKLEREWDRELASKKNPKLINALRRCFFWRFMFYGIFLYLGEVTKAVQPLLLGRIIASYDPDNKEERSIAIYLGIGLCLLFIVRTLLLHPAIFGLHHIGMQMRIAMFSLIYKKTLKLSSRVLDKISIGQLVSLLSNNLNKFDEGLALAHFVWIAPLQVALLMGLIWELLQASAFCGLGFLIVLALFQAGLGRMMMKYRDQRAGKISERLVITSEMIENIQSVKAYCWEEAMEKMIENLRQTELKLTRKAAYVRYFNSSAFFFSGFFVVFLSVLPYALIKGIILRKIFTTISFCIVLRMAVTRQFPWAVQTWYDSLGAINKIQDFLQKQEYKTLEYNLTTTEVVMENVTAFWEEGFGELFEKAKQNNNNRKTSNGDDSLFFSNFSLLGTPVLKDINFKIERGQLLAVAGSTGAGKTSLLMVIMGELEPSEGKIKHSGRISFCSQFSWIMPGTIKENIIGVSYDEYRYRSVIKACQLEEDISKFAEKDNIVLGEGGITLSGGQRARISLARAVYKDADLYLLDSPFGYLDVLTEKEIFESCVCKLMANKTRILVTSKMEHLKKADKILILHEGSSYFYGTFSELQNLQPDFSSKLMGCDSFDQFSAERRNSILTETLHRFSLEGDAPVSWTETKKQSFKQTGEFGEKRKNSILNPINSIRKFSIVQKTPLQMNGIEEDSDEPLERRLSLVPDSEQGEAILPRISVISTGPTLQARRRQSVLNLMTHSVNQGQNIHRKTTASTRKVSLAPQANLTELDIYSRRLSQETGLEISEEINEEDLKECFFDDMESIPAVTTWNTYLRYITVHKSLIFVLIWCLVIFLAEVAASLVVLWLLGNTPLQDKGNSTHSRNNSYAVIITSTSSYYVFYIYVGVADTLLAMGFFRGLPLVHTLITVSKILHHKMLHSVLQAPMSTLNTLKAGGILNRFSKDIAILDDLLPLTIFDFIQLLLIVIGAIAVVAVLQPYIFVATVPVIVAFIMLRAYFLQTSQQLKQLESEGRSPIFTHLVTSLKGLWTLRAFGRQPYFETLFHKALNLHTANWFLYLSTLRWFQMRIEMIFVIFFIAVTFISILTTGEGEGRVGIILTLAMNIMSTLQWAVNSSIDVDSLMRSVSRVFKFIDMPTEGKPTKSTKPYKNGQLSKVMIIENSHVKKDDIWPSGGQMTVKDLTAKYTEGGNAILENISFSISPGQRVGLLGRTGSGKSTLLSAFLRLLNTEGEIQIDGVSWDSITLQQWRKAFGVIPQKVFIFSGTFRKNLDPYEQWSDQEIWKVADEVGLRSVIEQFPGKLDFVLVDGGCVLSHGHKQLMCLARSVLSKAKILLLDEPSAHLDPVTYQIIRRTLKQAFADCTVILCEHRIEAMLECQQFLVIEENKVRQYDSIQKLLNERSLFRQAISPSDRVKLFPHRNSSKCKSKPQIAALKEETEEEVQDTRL

EC50 [nM]	Emax [%]	Compound
264	181	CC(C)C[C@H]1C(=O)N(C)C2(CC2)C(=O)N[C@H](Cc2ccccc2)COc2cnc3ccccc3c2C(=O)N[C@H](C(=O)NCCc2nc(Cc3ccccc3)no2)CC(=O)N1C [Example 763, (3'S,7'S,13′R)-13′-Benzyl-N-(2-(3-benzyl-1,2,4-oxadiazol-5-yl)ethyl)-7′-isobutyl-6′,9′-dimethyl-1′,5′,8′,11′-tetraoxo-2′,3′,4′,5′,6′,7′,8′,9′,11′,12′,13′,14′-dodecahydro-1′H-spiro[cyclopropane-1,10′-[1]oxa[4,7,10,14]tetraazacycloheptadecino[17,16-c]quinoline]-3′-carboxamide]
374	315	CC(C)C[C@H]1C(=O)N(C)C2(CC2)C(=O)N[C@H](Cc2ccccc2)COc2cnc3ccccc3c2C(=O)N[C@H](C(=O)NCCc2nc(CC3CC3)no2)CC(=O)N1C [Example 764, (3'S,7'S,13′R)-13′-Benzyl-N-(2-(3-(cyclopropylmethyl)-1,2,4-oxadiazol-5-yl)ethyl)-7′-isobutyl-6′,9′-dimethyl-1′,5′,8′,11′-tetraoxo-2′,3′,4′,5′,6′,7′,8′,9′,11′,12′,13′,14′-dodecahydro-1′H-spiro[cyclopropane-1,10′-[1]oxa[4,7,10,14]tetraazacycloheptadecino[17,16-c]quinoline]-3′-carboxamide]
300	323	COc1noc(CCNC(=O)[C@@H]2CC(=O)N(C)[C@@H](CC(C)C)C(=O)N(C)[C@H](C)C(=O)N[C@H](Cc3ccccc3)COc3ccnc(OC)c3C(=O)N2)c1F [Example 765, (3R,6R,9S,13S)-3-benzyl-N-(2-(4-fluoro-3-methoxyisoxazol-5-yl)ethyl)-9-isobutyl-16-methoxy-6,7,10-trimethyl-5,8,11,15-tetraoxo-2,3,4,5,6,7,8,9,10,11,12,13,14,15-tetradecahydropyrido[3,4-p][1]oxa[4,7,10,14]tetraazacycloheptadecine-13-carboxamide]
154	393	COc1noc(CCNC(=O)[C@@H]2CC(=O)N(C)[C@@H](CC(C)C)C(=O)N3CCCC[C@@H]3C(=O)N[C@H](Cc3ccccc3)COc3cc(C)nc(OC)c3C(=O)N2)c1F [Example 766, (7S,11S,17aR,20R)-20-benzyl-N-(2-(4-fluoro-3-methoxyisoxazol-5-yl)ethyl)-11-isobutyl-4-methoxy-2,10-dimethyl-5,9,12,18-tetraoxo-5,6,7,8,9,10,11,12,15,16,17,17a,18,19,20,21-hexadecahydro-14H-dipyrido[2,1-f:3′,4′-p][1]oxa[4,7,10,14]tetraazacycloheptadecine-7-carboxamide]
212	390	COc1noc(CCNC(=O)[C@@H]2CC(=O)N(C)[C@@H](CC(C)C)C(=O)N3CCCC[C@@H]3C(=O)N[C@H](Cc3ccccc3)COc3ccnc(OC)c3C(=O)N2)c1F [Example 767, (7S,11S,17aR,20R)-20-benzyl-N-(2-(4-fluoro-3-methoxyisoxazol-5-yl)ethyl)-11-isobutyl-4-methoxy-10-methyl-5,9,12,18-tetraoxo-5,6,7,8,9,10,11,12,15,16,17,17a,18,19,20,21-hexadecahydro-14H-dipyrido[2,1-f:3′,4′-p][1]oxa[4,7,10,14]tetraazacycloheptadecine-7-carboxamide]

Second part, the compound before the results:

Compound	EC50 [nM]	Emax [%]
COC(=O)N1CCN2C(=O)[C@H](CC(C)C)N(C)C(=O)C[C@@H](C(=O)NCCc3cccc(OC)c3)NC(=O)c3c(ccc4ccccc34)OC[C@@H](Cc3ccccc3)NC(=O)[C@H]2C1 [Example 754, Methyl (4aR,7R,18S,22S)-7-benzyl-22-isobutyl-18-((3-methoxyphenethyl)carbamoyl)-21-methyl-5,16,20,23-tetraoxo-1,2,4,4a,5,6,7,8,16,17,18,19,20,21,22,23-hexadecahydro-3H-naphtho[1,2-p]pyrazino[2,1-f][1]oxa[4,7,10,14]tetraazacycloheptadecine-3-carboxylate]	219	279
CCOC(=O)N1CCN2C(=O)[C@H](CC(C)C)N(C)C(=O)C[C@@H](C(=O)NCCc3cccc(OC)c3)NC(=O)c3c(ccc4ccccc34)OC[C@@H](Cc3ccccc3)NC(=O)[C@H]2C1 [Example 755, ethyl (4aR,7R,18S,22S)-7-benzyl-22-isobutyl-18-((3-methoxyphenethyl)carbamoyl)-21-methyl-5,16,20,23-tetraoxo-1,2,4,4a,5,6,7,8,16,17,18,19,20,21,22,23-hexadecahydro-3H-naphtho[1,2-p]pyrazino[2,1-f][1]oxa[4,7,10,14]tetraazacycloheptadecine-3-carboxylate]	168	270
COc1cccc(CCNC(=O)[C@@H]2CC(=O)N(C)[C@@H](CC(C)C)C(=O)N3CCN(C(=O)OC4CCOCC4)C[C@@H]3C(=O)N[C@H](Cc3ccccc3)COc3ccc4ccccc4c3C(=O)N2)c1 [Example 756, Tetrahydro-2H-pyran-4-yl (4aR,7R,18S,22S)-7-benzyl-22-isobutyl-18-((3-methoxyphenethyl)carbamoyl)-21-methyl-5,16,20,23-tetraoxo-1,2,4,4a,5,6,7,8,16,17,18,19,20,21,22,23-hexadecahydro-3H-naphtho[1,2-p]pyrazino[2,1-f][1]oxa[4,7,10,14]tetraazacycloheptadecine-3-carboxylate]	311	252
COc1cccc(CCNC(=O)[C@@H]2CC(=O)N(C)[C@@H](CC(C)C)C(=O)N3CCN([S@](=O)(=NC(=O)OC(C)(C)C)c4ccccc4)C[C@@H]3C(=O)N[C@H](Cc3ccccc3)COc3ccc4ccccc4c3C(=O)N2)c1 [Example 757, tert-Butyl (((4aR,7R,18S,22S)-7-benzyl-22-isobutyl-18-((3-methoxyphenethyl)carbamoyl)-21-methyl-5,16,20,23-tetraoxo-1,2,4,4a,5,6,7,8,16,17,18,19,20,21,22,23-hexadecahydro-3H-naphtho[1,2-p]pyrazino[2,1-f][1]oxa[4,7,10,14]tetraazacycloheptadecin-3-yl)(oxo)(phenyl)-16-sulfaneylidene)carbamate]	145	280
COc1cccc(CCNC(=O)[C@@H]2CC(=O)N(C)[C@@H](CC(C)C)C(=O)N3CCN([S@@](=N)(=O)c4ccccc4)C[C@@H]3C(=O)N[C@H](Cc3ccccc3)COc3ccc4ccccc4c3C(=O)N2)c1 [Example 758, (4aR,7R,18S,22S)-7-Benzyl-22-isobutyl-N-(3-methoxyphenethyl)-21-methyl-5,16,20,23-tetraoxo-3-(phenylsulfonimidoyl)-2,3,4,4a,5,6,7,8,16,17,18,19,20,21,22,23-hexadecahydro-1H-naphtho[1,2-p]pyrazino[2,1-f][1]oxa[4,7,10,14]tetraazacycloheptadecine-18-carboxamide]	334	266
CC(C)C[C@H]1C(=O)N2CCOC[C@@H]2C(=O)N[C@H](Cc2ccccc2)COc2ccc3ccccc3c2C(=O)N[C@H](C(=O)NCCc2cccc(C#N)c2)CC(=O)N1C [Example 759, (4aR,7R,18S,22S)-7-Benzyl-N-(3-cyanophenethyl)-22-isobutyl-21-methyl-5,16,20,23-tetraoxo-1,2,4,4a,5,6,7,8,16,17,18,19,20,21,22,23-hexadecahydronaphtho[1,2-p][1,4]oxazino[3,4-f][1]oxa[4,7,10,14]tetraazacycloheptadecine-18-carboxamide]	296	131
COc1cccc(CCNC(=O)[C@@H]2CC(=O)N(C)[C@@H](CC(C)C)C(=O)N3CCCC[C@@H]3C(=O)N[C@H](Cc3ccccc3)COc3c[n+]([O-])c4ccccc4c3C(=O)N2)c1 [Example 760, (9S,13S,19aR,22R)-22-Benzyl-13-isobutyl-9-((3-methoxyphenethyl)carbamoyl)-12-methyl-7,11,14,20-tetraoxo-7,8,9,10,11,12,13,14,17,18,19,19a,20,21,22,23-hexadecahydro-16H-pyrido[2′,1′:6,7][1]oxa[4,7,10,14]tetraazacycloheptadecino[17,16-c]quinoline 2-oxide]	723	333
Cc1nc2ccc3c(c2o1)C(=O)N[C@H](C(=O)NCCc1cc(-c2ccccc2)no1)CC(=O)N(C)[C@@H](CC(C)C)C(=O)N(C)C1(CC1)C(=O)N[C@H](Cc1ccccc1)CO3 [Example 761, (8′R,14'S,18'S)-8′-Benzyl-14′-isobutyl-2′,12′,15′-trimethyl-10′,13′,16′,20′-tetraoxo-N-(2-(3-phenylisoxazol-5-yl)ethyl)-7′,8′,9′,10′,13′,14′,15′,16′,17′,18′,19′,20′-dodecahydro-12′H-spiro[cyclopropane-1,11′-oxazolo[4′,5′:5,6]benzo[1,2-p][1]oxa[4,7,10,14]tetraazacycloheptadecine]-18′-carboxamide]	676	202
Cc1nc2ccc3c(c2o1)C(=O)N[C@H](C(=O)NCCc1cc(C(C)C)no1)CC(=O)N(C)[C@@H](CC(C)C)C(=O)N(C)C1(CC1)C(=O)N[C@H](Cc1ccccc1)CO3 [Example 762, (8′R,14'S,18'S)-8′-Benzyl-14′-isobutyl-N-(2-(3-isopropylisoxazol-5-yl)ethyl)-2′,12′,15′-trimethyl-10′,13′,16′,20′-tetraoxo-7′,8′,9′,10′,13′,14′,15′,16′,17′,18′,19′,20′-dodecahydro-12′H-spiro[cyclopropane-1,11′-oxazolo[4′,5′:5,6]benzo[1,2-p][1]oxa[4,7,10,14]tetraazacycloheptadecine]-18′-carboxamide]	929	333
COc1cccc(CCNC(=O)[C@@H]2CC(=O)N(C)[C@@H](CC(C)C)C(=O)N(C)[C@H](C)C(=O)N[C@H](Cc3ccccc3)COc3ccnc(OC)c3C(=O)N2)c1 [Example 768, (3R,6R,9S,13S)-3-benzyl-9-isobutyl-16-methoxy-N-(3-methoxyphenethyl)-6,7,10-trimethyl-5,8,11,15-tetraoxo-2,3,4,5,6,7,8,9,10,11,12,13,14,15-tetradecahydropyrido[3,4-p][1]oxa[4,7,10,14]tetraazacycloheptadecine-13-carboxamide]	497	292
